Assay results published in patent publication US9512139B2, “Conformationally constrained, fully synthetic macrocyclic compounds” (POLYPHOR AG, priority 2009, dated 2016).
Each block holds one compound with its values, some of them ahead of it.

Assays:
[1] = Plasma stability assay, rat plasma (values in parentheses); type: in vitro ADME; conditions: value in parentheses
[2] = Metabolic stability assay, human microsomes; type: in vitro ADME; conditions: human, microsomes; for Metabolic Stability T½ [min] hum / Metabolic Stability 60 min hum [% remain.]: both, 10 µM; for Metabolic Stability 60 min hum [% remain.]: 1 h; for half-life at 10 µM: both sexes
in vitro = in vitro ADME, human; conditions: human, plasma; for Plasma Stability T½ [min] hum / Plasma Stability 240 min hum [% remain.]: 10 µM; for Plasma Stability 240 min hum [% remain.]: 4 h
Method: Example compounds were dissolved in DMSO/H2O 90:10 to a final concentration of 10 mM for plasma stability determination and metabolic stability determination.
Human plasma (3-5 donors, Blutspendedienst SRK, Basel) and CD-1 mouse plasma (mixed gender pool >50 animals, Innovative Research, CA, USA) are both sodium citrate stabilized. The assay is performed in triplicates at 10 μM compound concentration and 37° C. Samples are taken at 0, 15, 60, and 240 minutes and stopped by precipitation with 2 volumes of acetonitrile. The supernatant is collected, evaporated and reconstituted in a 5% acetonitrile solution to be analyzed by HPLC/MS/MS. The resulting peak area counts are expressed in percent of the 0 value and used to determine the endpoint stability in % and the half life in minutes. In order to monitor assay integrity the degradation of propantheline is assayed with every experimental set.

[3] = Metabolic stability assay, rat microsomes (values in parentheses); type: in vitro ADME; conditions: value in parentheses
[4] = Metabolic stability assay, CD-1 mouse microsomes; type: in vitro ADME; conditions: CD-1, mouse, microsomes; for Metabolic Stability T½ [min] mouse / Metabolic Stability 60 min mouse [% remain.]: both, 10 µM; for Metabolic Stability 60 min mouse [% remain.]: 1 h

Plasma Stability 240 min (rat) [% remain.] [1]: (89) % remain.
Plasma Stability T½ [min] (rat) [1]: (240) min
Metabolic Stability T½ [min] hum [2]: > 60 min
Metabolic Stability 60 min hum [% remain.] [2]: 79 % remain.
Plasma Stability T½ [min] hum (in vitro): > 240 min
Plasma Stability 240 min hum [% remain.] (in vitro): 90 % remain.
Metabolic Stability 60 min (rat) [% remain.] [3]: 78 % remain.
Metabolic Stability T½ [min] (rat) [3]: 60 (60) min
Metabolic Stability T½ [min] mouse [4]: > 60 min
Metabolic Stability 60 min mouse [% remain.] [4]: 91 % remain.
SMILES: COCCNC(=O)[C@@H]1COCC(=O)N2C[C@@H](NCC(C)C)C[C@H]2COc2cccc(c2)C(=O)N1C [Ex. 376, (4S,6S,13S)-6-(isobutylamino)-N-(2-methoxyethyl)-14-methyl-9,15-dioxo-2,11-dioxa-8,14-diazatricyclo[14.3.1.0^4,8]icosa-1(20),16,18-triene-13-carboxamide]

Plasma Stability 240 min (rat) [% remain.] [1]: (100) % remain.
Plasma Stability T½ [min] (rat) [1]: (240) min
Metabolic Stability T½ [min] hum [2]: > 60 min
Metabolic Stability 60 min hum [% remain.] [2]: 72 % remain.
Plasma Stability T½ [min] hum (in vitro): > 240 min
Plasma Stability 240 min hum [% remain.] (in vitro): 95 % remain.
Metabolic Stability 60 min (rat) [% remain.] [3]: 97 % remain.
Metabolic Stability T½ [min] (rat) [3]: 60 (60) min
Metabolic Stability T½ [min] mouse [4]: > 60 min
Metabolic Stability 60 min mouse [% remain.] [4]: 86 % remain.
SMILES: COCCNC(=O)[C@@H]1COCC(=O)N2C[C@@H](N3CCN(C)CC3)C[C@H]2COc2cccc(c2)C(=O)N1C [Ex. 377, (4S,6S,13S)-N-(2-methoxyethyl)-14-methyl-6-(4-methylpiperazino)-9,15-dioxo-2,11-dioxa-8,14-diazatricyclo[14.3.1.0^4,8]icosa-1(20),16,18-triene-13-carboxamide]

Plasma Stability 240 min (rat) [% remain.] [1]: (100) % remain.
Plasma Stability T½ [min] (rat) [1]: (240) min
Metabolic Stability T½ [min] hum [2]: > 60 min
Metabolic Stability 60 min hum [% remain.] [2]: 65 % remain.
half-life at 10 µM (in vitro): 240 min
Plasma Stability 240 min hum [% remain.] (in vitro): 48 % remain.
Metabolic Stability 60 min (rat) [% remain.] [3]: 72 % remain.
Metabolic Stability T½ [min] (rat) [3]: 60 (60) min
Metabolic Stability T½ [min] mouse [4]: > 60 min
Metabolic Stability 60 min mouse [% remain.] [4]: 87 % remain.
SMILES: COCCNC(=O)[C@@H]1COCC(=O)N2C[C@@H](N3CCN(Cc4ccccc4)CC3)C[C@H]2COc2cccc(c2)C(=O)N1C [Ex. 378, (4S,6S,13S)-6-(4-benzylpiperazino)-N-(2-methoxyethyl)-14-methyl-9,15-dioxo-2,11-dioxa-8,14-diazatricyclo[14.3.1.0^4,8]icosa-1(20),16,18-triene-13-carboxamide]

Plasma Stability 240 min (rat) [% remain.] [1]: (77) % remain.
half-life at 10 µM ([1]; read-out: Plasma Stability T½ [min] (rat)): 210 min
Metabolic Stability T½ [min] hum [2]: > 60 min
Metabolic Stability 60 min hum [% remain.] [2]: 98 % remain.
Plasma Stability T½ [min] hum (in vitro): > 240 min
Plasma Stability 240 min hum [% remain.] (in vitro): 70 % remain.
Metabolic Stability T½ [min] mouse [4]: > 60 min
Metabolic Stability 60 min mouse [% remain.] [4]: 100 % remain.
SMILES: CN1CCN([C@H]2CCCN(C)C(=O)c3cccc(c3)OC[C@@H]3C[C@H](O)CN3C2=O)CC1 [Ex. 581, (4S,6S,10S)-6-hydroxy-14-methyl-10-(4-methylpiperazino)-2-oxa-8,14-diazatricyclo[14.3.1.0^4,8]icosa-1(20),16,18-triene-9,15-dione]

Further lines, the compound ahead of its results:

SMILES: CN1C(=O)c2cccc(c2)OC[C@@H]2C[C@H](N)CN2C(=O)COC[C@H]1C(=O)NCc1ccc2ccccc2c1 [Ex. 368, (4S,6S,13S)-6-amino-14-methyl-N-(2-naphthylmethyl)-9,15-dioxo-2,11-dioxa-8,14-diazatricyclo[14.3.1.0^4,8]icosa-1(20),16,18-triene-13-carboxamide]
Plasma Stability 240 min (rat) [% remain.] [1]: (100) % remain.
Plasma Stability T½ [min] (rat) [1]: (240) min
Metabolic Stability T½ [min] hum [2]: > 60 min
Metabolic Stability 60 min hum [% remain.] [2]: 83 % remain.
Plasma Stability T½ [min] hum (in vitro): > 240 min
Plasma Stability 240 min hum [% remain.] (in vitro): 72 % remain.
Metabolic Stability 60 min (rat) [% remain.] [3]: 98 % remain.
Metabolic Stability T½ [min] (rat) [3]: 60 (60) min
Metabolic Stability T½ [min] mouse [4]: > 60 min
Metabolic Stability 60 min mouse [% remain.] [4]: 82 % remain.

SMILES: COCCNC(=O)[C@@H]1COCC(=O)N2C[C@@H](N)C[C@H]2COc2cccc(c2)C(=O)N1C [Ex. 369, (4S,6S,13S)-6-amino-N-(2-methoxyethyl)-14-methyl-9,15-dioxo-2,11-dioxa-8,14-diazatricyclo[14.3.1.0^4,8]icosa-1(20),16,18-triene-13-carboxamide]
Plasma Stability 240 min (rat) [% remain.] [1]: (79) % remain.
Plasma Stability T½ [min] (rat) [1]: (240) min
Metabolic Stability T½ [min] hum [2]: > 60 min
Metabolic Stability 60 min hum [% remain.] [2]: 100 % remain.
Plasma Stability T½ [min] hum (in vitro): > 240 min
Plasma Stability 240 min hum [% remain.] (in vitro): 85 % remain.
Metabolic Stability 60 min (rat) [% remain.] [3]: 100 % remain.
Metabolic Stability T½ [min] (rat) [3]: 60 (60) min
Metabolic Stability T½ [min] mouse [4]: > 60 min
Metabolic Stability 60 min mouse [% remain.] [4]: 80 % remain.

SMILES: CN1C(=O)c2cccc(c2)OC[C@@H]2C[C@H](NC(=O)CCc3ccncc3)CN2C(=O)COC[C@H]1C(=O)NCc1ccc2ccccc2c1 [Ex. 372, (4S,6S,13S)-14-methyl-N-(2-naphthylmethyl)-9,15-dioxo-6-{[3-(4-pyridinyl)propanoyl]amino}-2,11-dioxa-8,14-diazatricyclo[14.3.1.0^4,8]icosa-1(20),16,18-triene-13-carboxamide]
Plasma Stability 240 min (rat) [% remain.] [1]: (100) % remain.
Plasma Stability T½ [min] (rat) [1]: (240) min
half-life at 10 µM [2]: 46 min
Metabolic Stability 60 min hum [% remain.] [2]: 43 % remain.
Plasma Stability T½ [min] hum (in vitro): > 240 min
Plasma Stability 240 min hum [% remain.] (in vitro): 68 % remain.
Metabolic Stability 60 min (rat) [% remain.] [3]: 72 % remain.
Metabolic Stability T½ [min] (rat) [3]: 60 (60) min
Metabolic Stability T½ [min] mouse [4]: > 60 min
Metabolic Stability 60 min mouse [% remain.] [4]: 73 % remain.

SMILES: CC(C)CN[C@H]1C[C@H]2COc3cccc(c3)C(=O)N(C)[C@H](C(=O)NCc3ccc4ccccc4c3)COCC(=O)N2C1 [Ex. 373, (4S,6S,13S)-6-(isobutylamino)-14-methyl-N-(2-naphthylmethyl)-9,15-dioxo-2,11-dioxa-8,14-diazatricyclo[14.3.1.0^4,8]icosa-1(20),16,18-triene-13-carboxamide]
Plasma Stability 240 min (rat) [% remain.] [1]: (100) % remain.
Plasma Stability T½ [min] (rat) [1]: (240) min
half-life at 10 µM [2]: 12 min
Metabolic Stability 60 min hum [% remain.] [2]: 12 % remain.
Plasma Stability T½ [min] hum (in vitro): > 240 min
Plasma Stability 240 min hum [% remain.] (in vitro): 55 % remain.
Metabolic Stability 60 min (rat) [% remain.] [3]: 0 % remain.
half-life at 10 µM ([3]; read-out: Metabolic Stability T½ [min] (rat)): 7 min
half-life at 10 µM ([4]; both sexes): 36 min
Metabolic Stability 60 min mouse [% remain.] [4]: 39 % remain.

SMILES: CN(C)CCNC(=O)[C@@H]1COCC(=O)N2C[C@@H](NC(=O)Cc3ccc4ccccc4c3)C[C@H]2COc2cccc(c2)C(=O)N1C [Ex. 374, (4S,6S,13S)-N-[2-(dimethylamino)ethyl]-14-methyl-6-{[2-(2-naphthyl)acetyl]amino}-9,15-dioxo-2,11-dioxa-8,14-diazatricyclo[14.3.1.0^4,8]icosa-1(20),16,18-triene-13-carboxamide]
Plasma Stability 240 min (rat) [% remain.] [1]: (82) % remain.
Plasma Stability T½ [min] (rat) [1]: (240) min
Metabolic Stability T½ [min] hum [2]: > 60 min
Metabolic Stability 60 min hum [% remain.] [2]: 61 % remain.
Plasma Stability T½ [min] hum (in vitro): > 240 min
Plasma Stability 240 min hum [% remain.] (in vitro): 57 % remain.
Metabolic Stability 60 min (rat) [% remain.] [3]: 90 % remain.
Metabolic Stability T½ [min] (rat) [3]: 60 (60) min
Metabolic Stability T½ [min] mouse [4]: > 60 min
Metabolic Stability 60 min mouse [% remain.] [4]: 94 % remain.
